Active and inactive are the calls of the source. The calls are words filed in the database; no cut-off is given here. Positions of bridges follow the written chain, without caps; N, C: chain ends. Non-standard residues stand in square brackets, D forms with d. Residues, ends and D or L forms follow the SMILES beside them. ξ: configuration not given here. *: point of attachment. Biotin = O=C1N[C@H]2[C@H](CS[C@H]2CCCCC(=O)*)N1; R5 = C=CCCC[C@@](C)(N)C(=O)O; ξIle = CC[C@H](C)C(N)C(=O)O; Ahx = NCCCCCC(=O)O

Nine compounds from ChEMBL document CHEMBL5338753, “Stapled Peptides as Direct Inhibitors of Nrf2-sMAF Transcription Factors” (J Med Chem, 2023) can be followed below.

The target in data set [1] is T1, Nuclear factor erythroid 2-related factor 2 (Homo sapiens) (UniProt Q16236).
T1 sequence (whole entry): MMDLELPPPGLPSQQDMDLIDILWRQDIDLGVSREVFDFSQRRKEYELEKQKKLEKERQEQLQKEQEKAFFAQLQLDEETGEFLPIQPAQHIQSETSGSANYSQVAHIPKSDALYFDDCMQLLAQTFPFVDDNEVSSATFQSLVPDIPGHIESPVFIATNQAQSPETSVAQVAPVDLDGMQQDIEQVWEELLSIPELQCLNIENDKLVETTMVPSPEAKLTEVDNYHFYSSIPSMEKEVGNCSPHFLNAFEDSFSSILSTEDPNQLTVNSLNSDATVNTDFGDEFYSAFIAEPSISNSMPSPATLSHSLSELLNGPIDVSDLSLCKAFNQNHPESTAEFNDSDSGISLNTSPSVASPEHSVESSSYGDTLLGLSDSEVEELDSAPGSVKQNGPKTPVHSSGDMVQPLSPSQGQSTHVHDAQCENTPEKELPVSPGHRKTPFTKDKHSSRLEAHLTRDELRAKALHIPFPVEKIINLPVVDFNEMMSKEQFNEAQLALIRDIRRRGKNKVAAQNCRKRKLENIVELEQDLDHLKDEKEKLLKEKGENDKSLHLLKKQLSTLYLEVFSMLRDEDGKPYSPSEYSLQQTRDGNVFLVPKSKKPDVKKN
The data set can be described thus: Inhibition of human Nrf2 in HEK-293T cells expressing ARE-firefly luciferase and TK-Renilla luciferase at 0 to 100 uM incubated for 16 hrs by Dual-Luciferase reporter based luminometer analysis. As to conditions: dose 0-100 µM. The format is cell-based. In general terms: A reporter such as luciferase makes a cellular process visible.

Data set [2] addresses T1, Nuclear factor erythroid 2-related factor 2 (Homo sapiens). In words: Inhibition of human Nrf2 in HEK-293T cells expressing NQO1-ARE-firefly luciferase and TK-Renilla luciferase at 50 uM incubated for 16 hrs by Dual-Luciferase reporter based luminometer analysis. The format is cell-based.
The nature of data set [3]: Stability of compound assessed as proteinase K (unknown origin) mediated compound degradation at 55 uM measured upto 24 hrs by LC/MS analysis. The format is ADME. As to conditions: human.
Data set [4] in a line: Stability of compound assessed as proteinase K (unknown origin) mediated compound degradation at 55 uM measured after 40 mins by LC/MS analysis. The format is ADME. As to conditions: human.
The target in data set [5] is T2, Transcription factor MafG (Homo sapiens, UniProt O15525). The data set can be described thus: Binding affinity to human His-tagged MafG at 1 uM incubated for 10 mins with 188 to 3000 nM protein by SPR analysis. In general terms: SPR reads the build-up and loss of mass on a sensor chip optically.
For data set [6], the target named is T2, Transcription factor MafG. The data set can be described thus: Binding affinity to human His-tagged MafG expressed in Escherichia coli Rosetta (DE3) by immunoprecipitation assay.
Another data set addresses Albumin (Bos taurus, UniProt P02769). In words: Binding affinity to bovine serum albumin at 1 uM by SPR analysis. As to conditions: cattle.
Data set [7] addresses T2, Transcription factor MafG. In words: Binding affinity to human His-tagged MafG assessed as dissociation constant incubated for 10 mins by SPR analysis.
Data set [8] has as its target T2, Transcription factor MafG. The data set can be described thus: Binding affinity to human His-tagged MafG expressed in Escherichia coli Rosetta (DE3) incubated in presence of unlabeled peptide by immunoprecipitation assay.

T2 sequence (O15525 whole entry): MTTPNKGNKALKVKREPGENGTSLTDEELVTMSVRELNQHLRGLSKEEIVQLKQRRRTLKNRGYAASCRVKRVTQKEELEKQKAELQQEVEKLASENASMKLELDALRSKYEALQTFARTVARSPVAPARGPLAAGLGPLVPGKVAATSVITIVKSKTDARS
Albumin, sequence (P02769 whole entry): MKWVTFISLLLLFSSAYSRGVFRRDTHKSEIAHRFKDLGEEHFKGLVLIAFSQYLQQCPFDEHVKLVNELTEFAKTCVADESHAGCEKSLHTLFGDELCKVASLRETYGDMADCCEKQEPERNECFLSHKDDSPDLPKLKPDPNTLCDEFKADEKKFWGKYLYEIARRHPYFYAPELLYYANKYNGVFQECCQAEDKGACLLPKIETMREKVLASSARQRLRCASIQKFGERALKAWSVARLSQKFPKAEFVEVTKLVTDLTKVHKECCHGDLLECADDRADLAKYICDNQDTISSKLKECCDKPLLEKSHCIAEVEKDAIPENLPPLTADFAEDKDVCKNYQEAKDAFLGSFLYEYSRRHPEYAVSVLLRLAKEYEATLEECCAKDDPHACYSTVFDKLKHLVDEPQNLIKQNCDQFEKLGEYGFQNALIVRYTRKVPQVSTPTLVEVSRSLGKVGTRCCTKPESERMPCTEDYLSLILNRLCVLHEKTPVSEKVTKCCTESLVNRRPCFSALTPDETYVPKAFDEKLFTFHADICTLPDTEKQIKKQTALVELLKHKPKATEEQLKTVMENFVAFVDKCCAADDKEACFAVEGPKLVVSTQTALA

With `CC(=O)N[C@@H](C)C(=O)N[C@H](C(=O)N[C@@H](CCC(=O)O)C(=O)N[C@@H](C)C(=O)N[C@@H](CCC(=O)O)C(=O)N[C@]1(C)CCC/C=C\CCC[C@](C)(C(=O)N[C@@H](C)C(=O)N[C@@H](CCCCN)C(=O)N[C@@H](CC(=O)O)C(=O)N[C@@H](CCC(=O)O)C(=O)N[C@@H](C)C(=O)N[C@@H](CCC(=O)O)C(N)=O)NC(=O)[C@H](CC(=O)O)NC(=O)[C@H](C)NC(=O)[C@H](CC(=O)O)NC1=O)C(C)C` (Ac-AVEAE[R5]DAD[R5]AKDEAE-NH2; staple (Z) 6-10), the inhibition result in [1] is “inactive”.
Turning to `CC(=O)N[C@@H](CC(=O)O)C(=O)N[C@@H](CCC(=O)O)C(=O)N[C@@H](CCCCN)C(=O)N[C@@H](CCC(=O)O)C(=O)N[C@@H](CCCCN)C(=O)N[C@@H](CC(C)C)C(=O)N[C@]1(C)CCC/C=C\CCC[C@](C)(C(=O)N[C@@H](CCC(=O)O)C(=O)N[C@@H](CC(N)=O)C(=O)N[C@@H](CC(=O)O)C(=O)N[C@@H](CCCCN)C(=O)N[C@@H](CO)C(N)=O)NC(=O)[C@H](CCCCN)NC(=O)[C@H](CCC(=O)O)NC(=O)[C@H](CCCCN)NC1=O` (Ac-DEKEKL[R5]KEK[R5]ENDKS-NH2; staple (Z) 7-11), the inhibition result in data set [2] was “inactive”. Besides, the Stability result in data set [3] is “Stable”.
On to `CC(=O)N[C@@H](CC(=O)O)C(=O)N[C@@H](CC(C)C)C(=O)N[C@@H](CC(=O)O)C(=O)N[C@@H](Cc1c[nH]cn1)C(=O)N[C@@H](CC(C)C)C(=O)N[C@]1(C)CCC/C=C\CCC[C@](C)(C(=O)N[C@@H](CCCCN)C(=O)N[C@@H](CC(C)C)C(=O)N[C@@H](CC(C)C)C(=O)N[C@@H](CCCCN)C(=O)N[C@@H](CCC(=O)O)C(=O)N[C@@H](CCCCN)C(N)=O)NC(=O)[C@H](CCCCN)NC(=O)[C@H](CCC(=O)O)NC(=O)[C@H](CC(=O)O)NC1=O` (Ac-DLDHL[R5]DEK[R5]KLLKEK-NH2; staple (Z) 6-10), for which, in data set [2], the inhibition result was “inactive”. The Stability entry in data set [4] is “Unstable”.
In the case of `CC(C)C[C@H](NC(=O)[C@H](CCCCN)NC(=O)[C@H](CCC(=O)O)NC(=O)[C@H](CCCCN)NC(=O)[C@H](CCC(=O)O)NC(=O)[C@H](CC(=O)O)NC(=O)CCCCCNC(=O)CCCC[C@@H]1SC[C@@H]2NC(=O)N[C@@H]21)C(=O)N[C@]1(C)CCC/C=C\CCC[C@](C)(C(=O)N[C@@H](CCC(=O)O)C(=O)N[C@@H](CC(N)=O)C(=O)N[C@@H](CC(=O)O)C(=O)N[C@@H](CCCCN)C(=O)N[C@@H](CO)C(N)=O)NC(=O)[C@H](CCCCN)NC(=O)[C@H](CCC(=O)O)NC(=O)[C@H](CCCCN)NC1=O` ({Biotin-Ahx}-DEKEKL[R5]KEK[R5]ENDKS-NH2; staple (Z) 7-11), the outcome in [5] and in [6] was inactive.
In the case of `CC(C)C[C@H](NC(=O)[C@H](CC(=O)O)NC(=O)CCCCCNC(=O)CCCC[C@@H]1SC[C@@H]2NC(=O)N[C@@H]21)C(=O)N[C@@H](CC(=O)O)C(=O)N[C@@H](Cc1c[nH]cn1)C(=O)N[C@@H](CC(C)C)C(=O)N[C@]1(C)CCC/C=C\CCC[C@](C)(C(=O)N[C@@H](CCCCN)C(=O)N[C@@H](CC(C)C)C(=O)N[C@@H](CC(C)C)C(=O)N[C@@H](CCCCN)C(=O)N[C@@H](CCC(=O)O)C(=O)N[C@@H](CCCCN)C(N)=O)NC(=O)[C@H](CCCCN)NC(=O)[C@H](CCC(=O)O)NC(=O)[C@H](CC(=O)O)NC1=O` ({Biotin-Ahx}-DLDHL[R5]DEK[R5]KLLKEK-NH2; staple (Z) 6-10), in data set [6], the result was inactive.
Take `CC[C@H](C)C(NC(=O)CCCCCNC(=O)CCCC[C@@H]1SC[C@@H]2NC(=O)N[C@@H]21)C(=O)N[C@H](C(=O)N[C@@H](CCC(=O)O)C(=O)N[C@@H](CC(C)C)C(=O)N[C@@H](CCC(=O)O)C(=O)N[C@]1(C)CCC/C=C\CCC[C@](C)(C(=O)N[C@@H](CC(C)C)C(=O)N[C@@H](CCCCN)C(=O)N[C@@H](CC(=O)O)C(=O)N[C@@H](CCC(=O)O)C(=O)N[C@@H](CCCCN)C(=O)N[C@@H](CCC(=O)O)C(N)=O)NC(=O)[C@H](CC(=O)O)NC(=O)[C@H](CC(C)C)NC(=O)[C@H](CC(=O)O)NC1=O)C(C)C` (stereo partly specified) ({Biotin-Ahx}-[ξIle]VELE[R5]DLD[R5]LKDEKE-NH2; staple (Z) 6-10): the Activity entry on Albumin is “Not Active”. The Kd in [7] amounted to 337 nM. In addition, the result in data set [6] and in data set [8] was Active.
Turning to Ac-DEKEKLLKEKGENDKS-NH2, the inhibition entry in [2] was “inactive”.
The same measure, in the same setting: with Ac-DLDHLKDEKEKLLKEK-NH2 the entry was “inactive”.
Turning to Ac-IVELEQDLDHLKDEKE-NH2, the inhibition result in data set [2] is “inactive”. Further, the Stability entry in [3] is recorded as “Unstable”.

What is called Kd is the equilibrium constant for the complex coming apart.
